Experimental data: patent publication US20150004620A1, “METHOD OR DEVICE FOR IDENTIFYING INHIBITOR OF EPITHELIAL MESENCHYMAL TRANSITION” (Agency for Science, Technology and Research, priority 2011, published 2015)

How the values were obtained:
Assay type in all cases: cell-based
[1] = system: EGF-induced EMT in NBT-II cells; test: EMT spot migration assay, EGF-induced; conditions: EGF-induced EMT (20 ng/ml EGF), NBT-II cells, CDR dose response from 6.67 μM; read-out: Cell Dispersion IC 50, EGF
Procedure: (§1) NBT-II cells were stably transfected with mcherry-fluorescent H2B and maintained in DMEM supplemented with 10% fetal bovine serum (FBS, Thermo Scientific), 1 μg/ml puromycin (Sigma) and 100 units/ml penicillin-streptomycin (1× pen-strep, Invitrogen). Cells were grown to 80% confluency in tissue culture flasks prior to plating. Cells were trypsinized and concentrated to a density of 5×10^6 cell/ml in CO2-independent medium (Invitrogen) supplemented with 10% FBS. The cell suspension was then evenly dispersed into the wells of two columns of a 96-well V-bottom plate. Using a robotic liquid-handling station (Bravo, Agilent Technologies), 0.5 μl of cell suspension was transferred from the two columns of the cell suspension-loaded plate and deposited into the center of the wells of two columns of a 96-well clear bottom, black assay plate (Corning). This process was repeated six times so that all 96 wells of the assay plate were deposited with a cell suspension spot. The plate was then sealed to minimize evaporation of the cell suspension spots and transferred to a 37° C., 5% CO2 incubator to allow for cells to attach to the culture surface. After 1 hour, the plate was gently washed with medium once to remove unattached cells, refreshed with 100 μl of assay medium (DMEM supplemented with 10% FBS and 1× pen-strep), and then further incubated to allow for cell-cell contacts to establish in the cell colonies.
(§2) Four tiled, non-overlapping images were acquired around the center of each well, and were then stitched together during image analysis to generate a montage covering an area of 3.2 mm×3.2 mm. These images (T1) represent the initial state of the cell colonies before EMT induction.
(§3) After the T1 images were acquired, 1 μl of test compounds were transferred from compound stock plates and added to the assay plates. Appropriate negative controls (1 μl DMSO) and positive controls (1 μl 1.0 mM compound in DMSO) were also added into columns 1 and 12 of each assay plate, respectively. […] The cultures were then further incubated overnight.
(§4) The next day, 50 μl of growth factor-containing medium was added to each well of the assay-plates. For each of the growth factor-induced EMT spot migration assays, the final growth factor concentrations in each well is optimized to be 20 ng/ml EGF (Sigma), 4 ng/ml HGF (Calbiochem) or 150 ng/ml IGF-1 (R&D Systems), respectively. The cultures were then incubated for another 24 hours, to allow for EMT and sufficient cell motility/dispersion to occur in the cell colonies.
(§5) Finally, the cell colonies were imaged again using the microplate imager, as described above. These images (T2) represent the final state of the cell colonies after compound treatment and EMT induction. The acquired T1 and T2 image sets for each assay plate were then sent for image analysis.
(§6) The acquisition of each well was obtained by four adjacent field images with no interstice in between. Each field image was loaded and nuclei were initially segmented independently of other fields to prevent artifact at the field border. Nuclei segmentation was achieved by combining a wavelet transform which is robust to noise and unhomogeneous background, and a watershed algorithm based on intensities to split nuclei clusters. Mask of nuclei segmentation of the different fields were then stitched together in order to obtain a large segmentation of the whole well. Cell bodies were estimated by applying a morphological dilation on the nucleus segmentation using a disk of 30 pixels (48 μm) in diameter. In cells that are contiguous, such as in a cell colony, nuclei segmentation dilation will result in the formation of continuous region areas with surrounding cells which can then be identified as colonies.
(§7) Total cell number and spreading coefficient values for each well were then exported into an Excel sheet.

[2] = system: lung carcinoma cell lines; test: Phase contrast cell morphology, lung carcinoma cell lines; conditions: A549, Calu-1 and H165.0 cell lines, 2 μM for 48 hours vs 0.02% DMSO
Procedure: Cell lines were treated with 2 μM AZD0530 or 0.02% DMSO control for 48 hours. Scale bar is 100 μm. Thus, FIG. 8 provides an example of how the method as described herein may be validated by the use of various lung carcinoma cell lines.

[3] = system: ovarian carcinoma cell lines; test: Cell movement tracking time-lapse videoscopy; conditions: 2 μM for 48 hours, tracked for 24 hours
Procedure: Cells were maintained in RMPI supplemented with 10% fetal bovine serum and 1× pen-strep. Cells were grown to 80% confluency in tissue culture flasks prior to plating. Cells were trysinized and plated onto a 12-well plate (BD) at a low density of 2000 cells per well in 1 ml of RMPI. Each ovarian cell line was seeded into two wells of a 12 well tissue culture plate. For each ovarian cell line, one of the two wells was treated with 2 μM AZD0530 and the other well treated with 0.02% DMSO control for 48 hours. Cells were imaged using a time-lapse video microscope incubator system (Leica) controlled by Metamorph software (Molecular Devices). Time-lapse images were taken at 5 min intervals for 24 hours and saved as tiff format. Each individual tiff images were compiled into stack images using the stack creation function in Metamorph. Each cell was tracked using the particle tracking function in Metamorph software. The tracking function detected and recorded the x and y coordinates of the cell being tracked for each image in the stack. The x and y coordinates were used to plot the track of the individual cell in excel. The total distance travelled, displacement and average velocity of the tracked cell were then tabulated.

[4] = system: IGF-1-induced EMT in NBT-II cells; test: EMT spot migration assay, IGF-1-induced; conditions: IGF-1-induced EMT (150 ng/ml IGF-1), CDR dose response from 6.67 μM, read-out: Cell Dispersion IC 50, IGF-1
Procedure: as §1, §2, §3, §4, §5, §6, §7

E-cadherin = test: Western blot of E-cadherin in ovarian carcinoma cell lines; conditions: panel of ovarian carcinoma cell lines, 2 μM for 48 hours vs 0.02% DMSO
Procedure: FIG. 11 is a western blot image showing the increase in epithelial marker E-cadherin expression and the decrease of mesenchymal marker MMP-13 expression in panel of ovarian carcinoma cell lines treated with AZD0530. Cell lines were treated with 2 μM AZD0530 or 0.02% DMSO control for 48 hours. Thus, FIG. 11 provides an example of possible downstream analysis that may be conducted subsequent to the detection of possible inhibitor by the method as described herein. In this figure, western blot analysis was used to validate the possible inhibitor detected by the method as described herein.
For western blot experiments with other cell lines, cells are treated either with AZD0530, such as 2 μM AZD0530 or DMSO, such as 0.02% DMSO control for 48 h. The samples are then processed using the same procedure as described above. The samples were probed with MMP-13, E-cadherin, plakoglobin (Cell Signaling), α-tubulin, and β-actin (Cell Signaling) antibodies.

[5] = panel of ovarian carcinoma cell lines

IC50 [1]: 560 nM
IC50 [4]: 240 nM
Compound: CN1CCN(CCOc2cc(OC3CCOCC3)c3c(Nc4c(Cl)ccc5c4OCO5)ncnc3c2)CC1 [AZD0530]
Cell morphology (phase contrast) [2]: compaction of cell morphology
Mobility (individual cell tracks) ([3]; ovarian carcinoma cell lines): suppression of the mobility
Average displacement cells migrate [3, 5]: decrease
Average velocity of cell migrations [3, 5]: decrease
Epithelial marker E-cadherin expression (E-cadherin): increase
